For one assay, the system named is Leishmania donovani. Description: Antiprotozoal activity against Leishmania donovani MHOM/ET/67/L82 after 72 hrs by fluorimetry. The format is functional, organism-based. The following applies: MHOM/ET/67/L82, 72 h.
In another assay the test system is Trypanosoma cruzi. The experiment in a line: Antiparasitic activity against intracellular amastigotes of Trypanosoma cruzi Tulahuen C2C4 expressing LacZ gene infected in rat L6 cells after 96 hrs by photometrically. The format is functional, organism-based. The following applies: Tulahuen C2C4, L6, 96 h.
The test system of assay [1] is Trypanosoma brucei rhodesiense. Description: Antiparasitic activity against bloodstream form of Trypanosoma brucei rhodesiense STIB 900 after 72 hrs by microplate reader assay. The following applies: STIB 900, 72 h. It counts as functional, organism-based.
The next assay deals with Plasmodium falciparum. Description: Antimalarial activity against chloroquine- and pyrimethamine-resistant Plasmodium falciparum K1 assessed as [3H]-hypoxanthine incorporation after 48 hrs by liquid scintillation counting. It counts as functional, organism-based.
The test system of a further assay is L6. The experiment in a line: Cytotoxicity against rat L6 cells after 72 hrs by alamar blue assay. The format is cell-based. The following applies: L6, 72 h. A general note: The colour change of resazurin is a common sign of viable cells or microbes.
In a further assay the test system is Neutrophil. Description: Inhibition of PMA-stimulated superoxide production in human neutrophils assessed as respiratory burst. It counts as functional, cell-based.
Assay [2] has as its target T1, Phospholipase A2 (Apis mellifera) (UniProt P00630).
T1 sequence (whole entry): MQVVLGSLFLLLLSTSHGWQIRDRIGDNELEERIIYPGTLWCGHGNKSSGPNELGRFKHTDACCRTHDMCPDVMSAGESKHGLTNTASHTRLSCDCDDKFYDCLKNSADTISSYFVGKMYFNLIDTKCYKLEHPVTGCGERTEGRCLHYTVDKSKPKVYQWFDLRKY
Description: Inhibition of Apis mellifera venom PLA2 by colorimetric bioassay.

In a further assay the test system is Saccharomyces cerevisiae. The experiment in a line: Inhibition of yeast FTase in presence of farnesyl pyrophosphate.

For eleven compounds, IC50 and inhibition results are on record in ChEMBL document CHEMBL1772933, “Didemnidines A and B, indole spermidine alkaloids from the New Zealand ascidian Didemnum sp” (J Nat Prod, 2011).

Calls of active or inactive are those of the source. The calls are words filed in the database; no cut-off is given here.

As a reminder, the IC50 is the point on the concentration scale where inhibition reaches its midpoint. For `CCCCCCCCCCCCCCCCOP(=O)([O-])OCC[N+](C)(C)C` [MILTEFOSINE], in the assay on Leishmania donovani, the 50% inhibitory concentration (IC50) is 0.52 µM.

`O=C(Cn1ccnc1[N+](=O)[O-])NCc1ccccc1` [BENZNIDAZOLE]: it took 1.35 µM to reach half-maximal inhibition with Trypanosoma cruzi (IC50).

With `CC(C)(C)OC(=O)NCCCCNCCCNC(=O)C(=O)c1c[nH]c2cc(Br)ccc12`, the IC50 in assay [1] is 9.9 µM; in the assay on Trypanosoma cruzi, 28 µM; in the assay on Leishmania donovani it was > 160 µM; in the assay on Plasmodium falciparum, 8.4 µM; in the assay with L6 it was 25 µM. For the same compound, the inhibition result (in the assay with Neutrophil; in assay [2]; with Saccharomyces cerevisiae) was “inactive” in each case.

Take `O=C1NC(=O)C(c2c[nH]c3cc(Br)ccc23)=C1c1cnc[nH]1`: the inhibition entry with Neutrophil was “inactive”.

For `O=C1NC(=O)C(c2c[nH]c3ccccc23)=C1c1cnc[nH]1`, in the assay with Neutrophil, the inhibition entry is “inactive”.

`NCCCCNCCCNC(=O)C(=O)c1c[nH]c2cc(Br)ccc12` [DIDEMNIDINE B]: the concentration for half-maximal inhibition (IC50) is 44 µM in assay [1]; 82 µM in the assay on Trypanosoma cruzi; > 160 µM in the assay with Leishmania donovani; 15 µM in the assay with Plasmodium falciparum; 25 µM with L6. Further, the inhibition entry (with Neutrophil; in assay [2]; in the assay with Saccharomyces cerevisiae) was “inactive” throughout.

Regarding `NCCCCNCCCNC(=O)C(=O)c1c[nH]c2ccccc12` [DIDEMNIDINE A], the concentration for half-maximal inhibition (IC50) was 59 µM in assay [1]; 130 µM in the assay with Trypanosoma cruzi; > 180 µM in the assay on Leishmania donovani; 41 µM in the assay with Plasmodium falciparum; 24 µM with L6. Besides, the inhibition result (in the assay on Neutrophil; in assay [2]; in the assay on Saccharomyces cerevisiae) was “inactive” each time.

Regarding `CC(C)(C)OC(=O)NCCCCNCCCNC(=O)C(=O)c1c[nH]c2ccccc12`, the half-inhibitory concentration (IC50) is 34 µM in assay [1]; 88 µM in the assay with Trypanosoma cruzi; > 190 µM with Leishmania donovani; 32 µM in the assay on Plasmodium falciparum; 73 µM with L6. Besides, the inhibition entry (with Neutrophil; in assay [2]; with Saccharomyces cerevisiae) was “inactive” throughout.

With `Cn1cncc1C1=C(c2c[nH]c3ccccc23)C(=O)NC1=O`, the inhibition result with Neutrophil was “inactive”.

`Cn1cncc1C1=C(c2c[nH]c3cc(Br)ccc23)C(=O)NC1=O`: the inhibition result in the assay on Neutrophil is “inactive”.

As for `COc1cc([C@@H]2c3cc4c(cc3[C@H](O)[C@H]3COC(=O)[C@H]23)OCO4)cc(OC)c1OC` [PODOFILOX], 0.01 µM corresponded to half-maximal inhibition with L6 (IC50).
